According to patent US7465558B2, “Perfusion system and apparatus for automated multi-channel patch-clamp recordings utilizing inside-out whole-cell configuration” (Wyeth, priority 2004, dated 2008):
“Also recorded” adds a separate entry of the source.

Test system: outward potassium currents
Assay: inside-out whole-cell patch clamp recording of outward potassium currents
Assay type: cell-based
Description: These currents were elicited by a test voltage of+40 mV preceded by a 500 ms long prepulse to−110 mV from a holding potential of−70 mV. […] Current traces were obtained in 5 minute time intervals.
FIG. 14 illustrates a graph showing outward potassium currents with test compounds according to an embodiment of the invention. […] Each test increment followed a 0.5 second long hyperpolarizing prepulse to−110 mV, while keeping the membrane potential at−70 mV between pulses. In the first (left-most) plot, measurements of current were taken while the cell was bathed in a control solution. The cell was then placed in a 10 mM 4-AP bath solution, and the measurements of the second (middle) plot were recorded. The chemical called 4-AP is a pharmacological blocker of these ion channels. The cell was then washed of the 4-AP solution, and the cell was again bathed in the control solution. Measurements were recorded as in the first and second plots, and the results are shown in the third (right-most) plot. For purposes of an inside-out whole cell patch clamp measurement, the control and 4-AP baths represented the intracellular region.
FIG. 15 illustrates a graph showing potassium current amplitude (I) behavior as a function of applied membrane voltages (V) according to an embodiment of the invention. […] Here, the black square points correspond to the left-most plot in FIG. 14, the black circles correspond to the center plot of FIG. 14 showing the reduced potassium current in the presence of 10 mM 4-AP bath solution, and the white circles correspond to measurements after the 4-AP was washed away in the right-most plot of FIG. 14.
This current is approximately 50% lower than in the left and right plots, which correspond to measurements in the control solution before and after drug action, respectively.

In the case of `Nc1ccncc1` [4-AP], the “block of potassium current amplitude” value (10 mM 4-AP bath solution representing the intracellular region, first cell, FIG. 14) is reported as “about 50%”, the “current across the membrane relative to current in control solution” value (10 mM 4-AP bath solution, first cell, current amplitude versus membrane voltage, FIG. 15) is reported as “less than 50%” and the “reversibility of the effect with wash-out perfusion” value (first cell, after washing and return to control solution, FIG. 14/15) is reported as “fully (or at least substantially) reversible; also recorded: reversible process”. For the same compound, the “current lower than in control solution before and after drug action” value (second cell, in the presence of 4-AP, FIG. 16) was “approximately 50%” and the “current amplitude after washing compared with control substance” value (second cell, wash-out, FIG. 17) was “nearly equal”.
